Common to all, as to assay: In-water applied, transplanted paddy rice, greenhouse: visual weed control
What all share (assay type): in vivo

Assay [1] deals with Leptochloa chinensis (L.) Nees (LEFCH). Conditions: 21 DAA. As for the experimental part:
(§1) Weed seeds or nutlets of the desired test plant species were planted in puddled soil (mud) prepared by mixing a shredded, non-sterilized mineral soil (50.5 percent silt, 25.5 percent clay, and 24 percent sand, with a pH of about 7.6 and an organic matter content of about 2.9 percent) and water at a 1:1 volumetric ratio. The prepared mud was dispensed in 365 mL aliquots into 16-ounce (oz.) non-perforated plastic pots with a surface area of 86.59 square centimeters (cm^2) leaving a headspace of 3 centimeters (cm) in each pot. Mud was allowed to dry overnight prior to planting or transplanting. Rice seeds were planted in Sun Gro MetroMix® 306 planting mixture, which typically has a pH of 6.0 to 6.8 and an organic matter content of about 30 percent, in plastic plug trays. Seedlings at the second or third leaf stage of growth were transplanted into 860 mL of mud contained in 32-oz. non-perforated plastic pots with a surface area of 86.59 cm^2 4 days prior to herbicide application. The paddy was created by filling the headspace of the pots with 2.5 to 3 cm of water. When required to ensure good germination and healthy plants, a fungicide treatment and/or other chemical or physical treatment was applied. The plants were grown for 4-22 days in a greenhouse with an approximate 14 h photoperiod which was maintained at about 29° C. during the day and 26° C. during the night. Nutrients were added as Osmocote® (19:6:12, N:P:K+minor nutrients) at 2 g per 16.-oz. pot and 4 g per 32-oz. pot. Water was added on a regular basis to maintain the paddy flood, and supplemental lighting was provided with overhead metal halide 1000-Watt lamps as necessary. The plants were employed for testing when they reached the first through fourth true leaf stage.
(§2) Treatments consisted of the acid or esters of 4-amino-3-chloro-5-fluoro-6-(4-chloro-2-fluoro-3-methoxy-phenyl)pyridine-2-carboxylic acid (compound A) each formulated as an SC and various herbicidal components alone and in combination. Forms of compound A were applied on an acid equivalent basis.
(§3) Treatment requirements for each compound or herbicidal component were calculated based upon the rates being tested, the concentration of active ingredient or acid equivalent in the formulation, an application volume of 2 mL per component per pot, and an application area of 86.59 cm^2 per pot.
(§4) For formulated compounds, a measured amount was placed in an individual 100 or 200 mL glass vial and was dissolved in a volume of 1.25% (v/v) Agri-Dex® crop oil concentrate to obtain application solutions.
(§5) For technical grade compounds, a weighed amount was placed in an individual 100 to 200 mL glass vial and was dissolved in a volume of acetone to obtain concentrated stock solutions. […] The concentrated stock solutions obtained were diluted with an equivalent volume of an aqueous mixture containing 2.5% (v/v) crop oil concentrate so that the final application solutions contained 1.25% (v/v) crop oil concentrate.
(§6) Applications were made by injecting, with a pipetter, appropriate amounts of the application solutions into the aqueous layer of the paddy. Control plants were treated in the same manner with the solvent blank. Applications were made so that all treated plant material received the same concentrations of acetone and crop oil concentrate.
(§7) The treated plants and control plants were placed in a greenhouse as described above and water was added as needed to maintain a paddy flood. After approximately 3 weeks the condition of the test plants as compared with that of the untreated plants was determined visually and scored on a scale of 0 to 100 percent where 0 corresponds to no injury or growth inhibition and 100 corresponds to complete kill.
(§8) Colby's equation was used to determine the herbicidal effects expected from the mixtures (Colby, S. R. 1967. Calculation of the synergistic and antagonistic response of herbicide combinations. Weeds 15:20-22.). […]

For assay [2], the system named is Echinochloa crus-galli (L.) Beauv. (ECHCG). The following applies: 21 DAA. As for the experimental part:
as §1, §2, §3, §4, §5, §6, §7, §8

Assay [3] concerns Schoenoplectus Maritimes (L.) Lye (SCPMA). Conditions: 21 DAA. As to the method: as §1, §2, §3, §4, §5, §6, §7, §8
The test system of assay [4] is Echinochloa oryzoides (Ard.) Fritsch (ECHOR). The following applies: 21 DAA. As to the method: as §1, §2, §3, §4, §5, §6, §7, §8
In assay [5] the test system is Cyperus rotundus L. (CYPRO). As for the experimental part: as §1, with “When required to ensure good germination and healthy plants, a fungicide treatment and/or other chemical or physical treatment was applied. The plants were grown for 4-22 days in a greenhouse with an approximate 14 h photoperiod which was maintained at about 29° C. during the day and 26° C. during the night.” left out
Forms of compound A were applied on an acid equivalent basis.
as §4, §5, §6, §7
Colby's equation was used to determine the herbicidal effects expected from the mixtures (Colby, S. R. 1967. Calculation of the synergistic and antagonistic response of herbicide combinations. Weeds 15:20-22.).
The following equation was used to calculate the expected activity of mixtures containing two active ingredients, A and B: Expected=A+B−(A×B/100)

Molecules are shown by their SMILES.

We go through four compounds from patent US8846570B2, “Herbicidal compositions comprising 4-amino-3-chloro-5-fluoro-6-(4-chloro-2-fluoro-3-methoxyphenyl)pyridine-2-carboxylic acid or a derivative thereof and microtubule inhibiting herbicides” (Dow AgroSciences LLC, priority 2012, dated 2014).

Consider `COc1c(Cl)ccc(-c2nc(C(=O)O)c(Cl)c(N)c2F)c1F` [Compound A Acid, 4-amino-3-chloro-6-(4-chloro-2-fluoro-3-methoxyphenyl)-5-fluoropyridine-2-carboxylic acid], for which the “Visual Weed Control (%) Obs” value worked out at 0% in assay [1] (8.75 g ae/ha); 0% in assay [1] (17.5 g ae/ha); 30% in assay [1] (35 g ae/ha); 0% in assay [2] (8.75 g ae/ha); 0% in assay [2] (17.5 g ae/ha); 20% in assay [2] (35 g ae/ha). The “Visual Weed Control (%) Obs” value in assay [3] (8.75 g ae/ha) came to 0%; in assay [3] (17.5 g ae/ha) it was 0%; in assay [3] (35 g ae/ha) it was 0%; in assay [4] (8.75 g ae/ha), 10%; in assay [4] (17.5 g ae/ha), 40%; in assay [4] (35 g ae/ha) it was 40%. Further, the “Visual Weed Control (%) Obs” value in assay [5] (20 DAA, 10.6 g ae/ha) stood at 10%; in assay [5] (20 DAA, 21.2 g ae/ha), 20%.
`COc1c(Cl)ccc(-c2nc(C(=O)OCc3ccccc3)c(Cl)c(N)c2F)c1F` [Compound A Benzyl Ester, benzyl ester of 4-amino-3-chloro-5-fluoro-6-(4-chloro-2-fluoro-3-methoxy-phenyl)pyridine-2-carboxylic acid]: the “Visual Weed Control (%) Obs” value amounted to 50% in assay [1] (35 g ae/ha); 50% in assay [1] (70 g ae/ha); 0% in assay [2] (4.38 g ae/ha); 0% in assay [2] (8.75 g ae/ha); 25% in assay [2] (17.5 g ae/ha); 0% in assay [3] (4.38 g ae/ha). For the same compound, the “Visual Weed Control (%) Obs” value in assay [3] (8.75 g ae/ha) is given as 0%; in assay [3] (17.5 g ae/ha), 0%; in assay [4] (4.38 g ae/ha), 40%; in assay [4] (8.75 g ae/ha), 60%; in assay [4] (17.5 g ae/ha) it was 75%; in assay [5] (20 DAA, 4.38 g ae/ha), 50%. Besides, the “Visual Weed Control (%) Obs” value in assay [5] (20 DAA, 8.75 g ae/ha) was 0%; in assay [5] (20 DAA, 17.5 g ae/ha) it was 90%; in assay [5] (21 DAA, 8.75 g ae/ha), 0%; in assay [5] (21 DAA, 17.5 g ae/ha), 0%.
`CSC(=O)c1c(C(F)F)nc(C(F)(F)F)c(C(=O)SC)c1CC(C)C` [Dithiopyr, S,S′-dimethyl-2-(difluoromethyl)-4-(2-methylpropyl)-6-(trifluoromethyl)-3,5-pyridinedicarbothioate]: the “Visual Weed Control (%) Obs” value in assay [3] (70 g ai/ha) is listed as 0%; in assay [4] (70 g ai/ha), 30%.
Regarding `CCC(CC)Nc1c([N+](=O)[O-])cc(C)c(C)c1[N+](=O)[O-]` [Pendimethalin, N-(1-ethylpropyl)-3,4-dimethyl-2,6-dinitrobenzenamine, reference compound], the “Visual Weed Control (%) Obs” value in assay [1] (280 g ai/ha) turned out to be 40%; in assay [1] (1120 g ai/ha), 48%; in assay [2] (280 g ai/ha), 20%; in assay [2] (560 g ai/ha), 0%; in assay [3] (560 g ai/ha), 0%; in assay [5] (21 DAA, 280 g ai/ha), 0%. In addition, the “Visual Weed Control (%) Obs” value in assay [5] (21 DAA, 560 g ai/ha) is given as 0%.
